In BindingDB's records for doi:10.1074/jbc.M113.480210 (University of Copenhagen, 2013):

Tests used:
Assay in all cases: Two-electrode Voltage Clamp Electrophysiology
Details in all cases: pH 7.4; 25 °C
[1] = molecular target: Glutamate receptor ionotropic, NMDA 1 [F484A,T518L]/3A (Rattus norvegicus, UniProt P35439+Q9R1M7, F484A/T518L)
Experimental: (§1) Two-electrode voltage clamp (TEVC) recordings were performed on Xenopus oocytes at room temperature 3-6 days postinjection using an OC-725C TEVC amplifier (Warner Instruments, Hamden, CT). […] Voltage and current electrodes were filled with 0.3 and 3 M KCl, respectively. During recordings, oocytes were placed in a recording chamber and perfused with the extracellular recording solution comprised of 90 mM NaCl, 1 mM KCl, 10 mM HEPES, 0.5 mM BaCl2, and 0.01 mM EDTA (pH 7.4 with NaOH). Current responses were recorded at a holding potential of -40 and -60 mV for GluN1/N2 and GluN1/N3 receptors, respectively. Compounds were dissolved in extracellular recording solution and applied to the oocyte by gravity-driven perfusion using a computer-controlled 8-modular valve positioner (Digital MVP, Hamilton, Reno, NV).

[2] = molecular target: Glutamate receptor ionotropic, NMDA 1 [F484A,T518L]/3B (Rattus norvegicus, UniProt P35439+Q8VHN2, F484A/T518L)
Sequence of Glutamate receptor ionotropic, NMDA 1 [F484A,T518L]/3B (Q8VHN2 25-1002 limits assumed, other chains not shown): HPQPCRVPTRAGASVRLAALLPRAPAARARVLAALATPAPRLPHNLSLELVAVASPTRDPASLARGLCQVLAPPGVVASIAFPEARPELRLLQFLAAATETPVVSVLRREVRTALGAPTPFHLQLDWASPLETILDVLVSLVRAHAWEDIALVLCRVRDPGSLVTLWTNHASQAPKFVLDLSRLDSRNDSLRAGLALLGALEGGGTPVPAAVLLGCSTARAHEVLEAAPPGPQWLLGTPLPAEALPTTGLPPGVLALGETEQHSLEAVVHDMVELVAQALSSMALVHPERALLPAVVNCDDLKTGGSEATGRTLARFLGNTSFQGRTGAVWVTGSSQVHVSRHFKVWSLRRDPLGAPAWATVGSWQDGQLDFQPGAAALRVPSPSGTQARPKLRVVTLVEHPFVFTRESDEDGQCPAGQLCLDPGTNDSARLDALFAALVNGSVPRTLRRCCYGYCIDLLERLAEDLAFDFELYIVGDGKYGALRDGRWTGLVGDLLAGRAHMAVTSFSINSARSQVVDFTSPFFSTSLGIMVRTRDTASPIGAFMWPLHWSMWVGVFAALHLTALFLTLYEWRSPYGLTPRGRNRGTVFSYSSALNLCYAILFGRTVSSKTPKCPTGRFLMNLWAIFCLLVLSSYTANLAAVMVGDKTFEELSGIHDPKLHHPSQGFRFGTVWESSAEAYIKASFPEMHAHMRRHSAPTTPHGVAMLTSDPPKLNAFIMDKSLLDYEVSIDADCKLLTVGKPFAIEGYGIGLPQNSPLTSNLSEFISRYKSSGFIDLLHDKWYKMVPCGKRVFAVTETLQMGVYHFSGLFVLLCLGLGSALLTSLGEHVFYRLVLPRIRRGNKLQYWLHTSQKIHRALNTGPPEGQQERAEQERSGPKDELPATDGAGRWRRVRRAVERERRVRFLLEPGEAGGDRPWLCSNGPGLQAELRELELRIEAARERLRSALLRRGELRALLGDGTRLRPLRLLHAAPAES
Experimental: as §1

[3] = molecular target: Glutamate receptor ionotropic, NMDA 2A (Rat, UniProt Q00959+Q62683)
Sequence of Glutamate receptor ionotropic, NMDA 2A (Q00959 whole entry, other chains not shown): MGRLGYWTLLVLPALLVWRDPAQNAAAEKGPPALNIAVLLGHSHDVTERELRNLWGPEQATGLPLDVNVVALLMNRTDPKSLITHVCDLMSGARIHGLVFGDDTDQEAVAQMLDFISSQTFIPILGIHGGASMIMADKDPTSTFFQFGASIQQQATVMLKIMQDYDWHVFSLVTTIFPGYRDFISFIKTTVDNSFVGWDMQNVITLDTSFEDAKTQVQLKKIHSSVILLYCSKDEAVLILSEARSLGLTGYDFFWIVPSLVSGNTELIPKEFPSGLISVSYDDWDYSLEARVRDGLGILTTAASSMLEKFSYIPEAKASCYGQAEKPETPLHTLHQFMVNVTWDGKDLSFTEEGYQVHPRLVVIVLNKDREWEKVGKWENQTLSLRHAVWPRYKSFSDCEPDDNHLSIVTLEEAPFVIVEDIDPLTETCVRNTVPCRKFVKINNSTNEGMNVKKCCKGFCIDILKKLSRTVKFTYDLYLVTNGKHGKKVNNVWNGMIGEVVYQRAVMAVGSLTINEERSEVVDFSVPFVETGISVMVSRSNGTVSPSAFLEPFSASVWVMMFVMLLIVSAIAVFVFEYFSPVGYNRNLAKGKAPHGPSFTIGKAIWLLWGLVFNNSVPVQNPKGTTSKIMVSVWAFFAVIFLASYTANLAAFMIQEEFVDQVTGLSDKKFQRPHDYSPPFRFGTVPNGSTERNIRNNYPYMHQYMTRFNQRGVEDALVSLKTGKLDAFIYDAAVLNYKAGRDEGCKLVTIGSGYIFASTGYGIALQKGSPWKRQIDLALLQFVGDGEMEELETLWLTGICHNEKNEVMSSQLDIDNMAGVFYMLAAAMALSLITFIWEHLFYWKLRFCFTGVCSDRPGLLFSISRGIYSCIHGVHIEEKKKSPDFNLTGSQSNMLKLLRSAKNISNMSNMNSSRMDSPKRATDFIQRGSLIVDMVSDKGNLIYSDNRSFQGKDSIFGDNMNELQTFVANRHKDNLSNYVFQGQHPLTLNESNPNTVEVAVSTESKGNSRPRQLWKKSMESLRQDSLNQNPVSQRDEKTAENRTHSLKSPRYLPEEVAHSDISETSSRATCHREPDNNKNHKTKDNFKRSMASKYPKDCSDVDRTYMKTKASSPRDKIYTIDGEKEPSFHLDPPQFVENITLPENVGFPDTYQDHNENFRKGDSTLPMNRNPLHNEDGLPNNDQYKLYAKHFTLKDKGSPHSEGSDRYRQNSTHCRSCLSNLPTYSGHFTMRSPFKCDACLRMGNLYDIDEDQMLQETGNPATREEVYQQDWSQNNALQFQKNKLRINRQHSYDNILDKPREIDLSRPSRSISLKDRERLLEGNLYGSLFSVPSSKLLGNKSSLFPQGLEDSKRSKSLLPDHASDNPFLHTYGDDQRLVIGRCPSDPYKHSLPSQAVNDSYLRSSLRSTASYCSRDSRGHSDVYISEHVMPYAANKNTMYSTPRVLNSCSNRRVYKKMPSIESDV
Experimental: as §1

Glutamate receptor 1 = Glutamate receptor 1 (Rattus norvegicus, UniProt P19490)
Sequence of Glutamate receptor 1 (P19490 whole entry): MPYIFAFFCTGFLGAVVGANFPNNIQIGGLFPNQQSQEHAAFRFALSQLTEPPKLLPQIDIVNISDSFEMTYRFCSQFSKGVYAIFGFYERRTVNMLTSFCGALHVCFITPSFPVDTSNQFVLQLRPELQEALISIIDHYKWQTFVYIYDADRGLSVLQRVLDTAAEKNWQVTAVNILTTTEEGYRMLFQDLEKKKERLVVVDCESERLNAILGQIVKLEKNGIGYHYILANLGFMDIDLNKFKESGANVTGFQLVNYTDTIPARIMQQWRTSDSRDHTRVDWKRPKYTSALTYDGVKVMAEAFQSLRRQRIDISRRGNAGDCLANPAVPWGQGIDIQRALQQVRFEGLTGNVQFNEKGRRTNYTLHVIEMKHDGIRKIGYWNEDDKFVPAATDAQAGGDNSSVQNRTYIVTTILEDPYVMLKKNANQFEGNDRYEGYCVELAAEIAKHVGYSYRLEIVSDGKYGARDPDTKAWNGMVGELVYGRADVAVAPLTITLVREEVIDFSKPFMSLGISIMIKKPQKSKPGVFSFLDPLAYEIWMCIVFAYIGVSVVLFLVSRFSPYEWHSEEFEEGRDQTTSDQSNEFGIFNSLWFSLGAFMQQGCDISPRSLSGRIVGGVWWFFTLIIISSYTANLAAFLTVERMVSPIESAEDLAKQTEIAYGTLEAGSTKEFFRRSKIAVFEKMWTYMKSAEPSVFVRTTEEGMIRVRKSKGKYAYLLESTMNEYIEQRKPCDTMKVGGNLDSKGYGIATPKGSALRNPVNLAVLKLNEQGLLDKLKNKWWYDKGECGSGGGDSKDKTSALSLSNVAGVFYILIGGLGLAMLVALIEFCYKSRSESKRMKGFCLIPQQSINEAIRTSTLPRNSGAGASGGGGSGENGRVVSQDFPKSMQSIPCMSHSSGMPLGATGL
Experimental: as §1

[4] = molecular target: Glutamate receptor ionotropic, NMDA 2B (Rat, UniProt Q00960+Q62683)
Experimental: as §1

[5] = molecular target: Glutamate receptor ionotropic, NMDA 2C (Rat, UniProt Q00961+Q62683)
Experimental: as §1

[6] = molecular target: Glutamate receptor ionotropic, NMDA 2D (Rat, UniProt Q62645+Q62683)
Experimental: as §1

Sequence of Glutamate receptor ionotropic, NMDA 1 [F484A,T518L]/3A (Q9R1M7 24-1135 limits assumed, other chains not shown): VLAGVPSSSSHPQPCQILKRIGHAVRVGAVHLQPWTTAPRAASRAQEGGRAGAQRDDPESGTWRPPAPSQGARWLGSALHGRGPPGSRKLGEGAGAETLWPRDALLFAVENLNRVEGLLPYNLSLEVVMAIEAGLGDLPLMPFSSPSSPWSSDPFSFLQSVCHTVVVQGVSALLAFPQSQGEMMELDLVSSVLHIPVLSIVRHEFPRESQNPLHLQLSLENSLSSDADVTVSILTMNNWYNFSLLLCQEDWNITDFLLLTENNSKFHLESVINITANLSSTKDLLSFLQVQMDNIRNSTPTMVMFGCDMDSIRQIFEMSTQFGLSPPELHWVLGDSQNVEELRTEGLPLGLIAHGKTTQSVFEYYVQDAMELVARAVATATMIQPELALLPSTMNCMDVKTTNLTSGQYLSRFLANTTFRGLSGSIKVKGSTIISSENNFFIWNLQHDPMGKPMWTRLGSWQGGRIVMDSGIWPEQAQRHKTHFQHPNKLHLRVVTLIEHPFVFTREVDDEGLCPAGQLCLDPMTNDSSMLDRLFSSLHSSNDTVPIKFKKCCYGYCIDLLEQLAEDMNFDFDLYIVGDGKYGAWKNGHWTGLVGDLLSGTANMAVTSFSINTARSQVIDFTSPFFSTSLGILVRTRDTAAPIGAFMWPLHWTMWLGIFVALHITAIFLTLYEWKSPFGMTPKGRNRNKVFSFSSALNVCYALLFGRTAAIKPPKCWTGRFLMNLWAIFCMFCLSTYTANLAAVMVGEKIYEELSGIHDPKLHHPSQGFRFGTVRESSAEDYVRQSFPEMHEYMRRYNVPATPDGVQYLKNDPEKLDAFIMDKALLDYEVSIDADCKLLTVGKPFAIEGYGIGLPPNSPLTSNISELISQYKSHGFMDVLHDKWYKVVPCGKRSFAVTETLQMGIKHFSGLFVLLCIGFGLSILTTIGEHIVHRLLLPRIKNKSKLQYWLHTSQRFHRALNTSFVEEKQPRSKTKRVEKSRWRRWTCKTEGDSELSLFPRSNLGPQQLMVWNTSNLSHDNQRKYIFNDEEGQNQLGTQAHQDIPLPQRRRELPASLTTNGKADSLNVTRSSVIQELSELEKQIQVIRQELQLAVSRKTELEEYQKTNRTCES

IC50 [1]	Ki [1]	IC50 [2]	Ki [2]	IC50 [3]	Ki [3]	IC50 (Glutamate receptor 1)	Ki (Glutamate receptor 1)	Ki [4]	Ki [5]	Ki [6]	Structure (SMILES)
97000 nM	35000 nM	> 300000 nM	> 150000 nM	92 nM	65 nM	–	–	–	–	–	O=C(O)c1cc(O)c2c(Cl)cc(Cl)cc2n1 [5,7-Dichlorokynurenic acid (5,7-DCKA)]
–	–	–	–	770 nM	560 nM	> 300000 nM	> 180000 nM	> 1300 nM	> 800 nM	> 300 nM	O=c1[nH]c2ccccc2n2c(S)nnc12 [1-thioxo-1,2-dihydro-[1,2,4]triazolo[4,3-a]-quinoxalin-4(5H)-one]
